# Data reported in patent US20190134005A1 (BioMarin Pharmaceutical Inc., priority 2016, published 2019).
# Molecular target: T1, human CGT (Homo sapiens, UniProt Q16880)
# T1 sequence (Q16880 21-541): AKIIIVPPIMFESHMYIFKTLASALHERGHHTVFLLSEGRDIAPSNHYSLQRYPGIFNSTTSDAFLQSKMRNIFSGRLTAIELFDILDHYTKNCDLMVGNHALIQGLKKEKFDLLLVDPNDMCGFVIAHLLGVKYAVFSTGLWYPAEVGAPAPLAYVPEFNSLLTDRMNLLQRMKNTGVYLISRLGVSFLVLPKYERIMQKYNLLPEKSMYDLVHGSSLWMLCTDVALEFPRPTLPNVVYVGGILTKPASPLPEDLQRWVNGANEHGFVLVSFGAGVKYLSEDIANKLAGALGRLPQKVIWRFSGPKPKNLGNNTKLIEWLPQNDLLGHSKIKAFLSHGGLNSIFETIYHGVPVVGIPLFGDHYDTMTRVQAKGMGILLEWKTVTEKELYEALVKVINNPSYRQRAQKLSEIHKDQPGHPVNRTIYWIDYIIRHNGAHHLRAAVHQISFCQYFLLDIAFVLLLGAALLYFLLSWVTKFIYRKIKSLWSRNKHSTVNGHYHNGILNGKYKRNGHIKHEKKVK
# Assay: Assay 1: CGT Enzymatic Assay (RapidFire/MS/MS, 0.01% Tween 80)
# Format: biochemical
# Conditions: Table 1, Compounds of Formula (I) and Formula (II); CGT enzymatic assay; read-out: IC50
row,IC50,Structure (SMILES)
1,< 1000 nM,"C[C@H]1N(c2ccc(Br)cc2)C(=O)N(c2ccc(Br)cc2)C1(O)c1cccc(Cl)c1 (stereo partly drawn) [Compound 73-2, (5R)-1,3-bis(4-bromophenyl)-4-(3-chlorophenyl)-4-hydroxy-5-methylimidazolidin-2-one]"
2,< 1000 nM,"C[C@@H]1N(c2ccc(Br)cc2)C(=O)N(c2ccc(Br)cc2)C1(O)c1cccc(C(F)(F)F)c1 (stereo partly drawn) [Compound 74-1, (5S)-1,3-bis(4-bromophenyl)-4-hydroxy-5-methyl-4-(3-(trifluoromethyl)phenyl)imidazolidin-2-one]"
3,< 1000 nM,"C[C@H]1N(c2ccc(Br)cc2)C(=O)N(c2ccc(Br)cc2)C1(O)c1cccc(C(F)(F)F)c1 (stereo partly drawn) [Compound 74-2, (5R)-1,3-bis(4-bromophenyl)-4-hydroxy-5-methyl-4-(3-(trifluoromethyl)phenyl)imidazolidin-2-one]"
4,< 1000 nM,"CC[C@@H]1N(c2ccc(Cl)cc2)C(=O)N(c2ccc(Cl)cc2)C1(O)c1cccc(C)c1 (stereo partly drawn) [Compound 75-1, (5S)-1,3-bis(4-chlorophenyl)-5-ethyl-4-hydroxy-4-(m-tolyl)imidazolidin-2-one]"
5,< 1000 nM,"CC[C@H]1N(c2ccc(Cl)cc2)C(=O)N(c2ccc(Cl)cc2)C1(O)c1cccc(C)c1 (stereo partly drawn) [Compound 75-2, (5R)-1,3-bis(4-chlorophenyl)-5-ethyl-4-hydroxy-4-(m-tolyl)imidazolidin-2-one]"
6,< 1000 nM,"CC[C@@H]1N(c2ccc(Br)cc2)C(=O)N(c2ccc(Br)cc2)C1(O)c1cccc(C)c1 (stereo partly drawn) [Compound 76-1, (5S)-1,3-bis(4-bromophenyl)-5-ethyl-4-hydroxy-4-(m-tolyl)imidazolidin-2-one]"
7,< 1000 nM,"CC[C@H]1N(c2ccc(Br)cc2)C(=O)N(c2ccc(Br)cc2)C1(O)c1cccc(C)c1 (stereo partly drawn) [Compound 76-2, (5R)-1,3-bis(4-bromophenyl)-5-ethyl-4-hydroxy-4-(m-tolyl)imidazolidin-2-one]"
8,1000 to 10000 nM,"O=C1N(c2ccc(Cl)cc2)CC(O)(c2cccc(C3CC3)c2)N1c1ccc(Cl)cc1 (stereo not drawn) [Compound 78, 1,3-bis(4-chlorophenyl)-4-(3-cyclopropylphenyl)-4-hydroxyimidazolidin-2-one]"
9,1000 to 10000 nM,"CCOc1cccc(C2(O)CN(c3ccc(Br)cc3)C(=O)N2c2ccc(Br)cc2)c1 (stereo not drawn) [Compound 79, 1,3-bis(4-bromophenyl)-4-(3-ethoxyphenyl)-4-hydroxyimidazolidin-2-one]"
10,< 1000 nM,"CC[C@@H]1N(c2ccc(Cl)cc2)C(=O)N(c2ccc(Cl)cc2)C1(O)c1cccc(C(F)(F)F)c1 (stereo partly drawn) [Compound 80-1, (5S)-1,3-bis(4-chlorophenyl)-5-ethyl-4-hydroxy-4-(3-(trifluoromethyl)phenyl)imidazolidin-2-one]"
11,< 1000 nM,"CC[C@H]1N(c2ccc(Cl)cc2)C(=O)N(c2ccc(Cl)cc2)C1(O)c1cccc(C(F)(F)F)c1 (stereo partly drawn) [Compound 80-2, (5R)-1,3-bis(4-chlorophenyl)-5-ethyl-4-hydroxy-4-(3-(trifluoromethyl)phenyl)imidazolidin-2-one]"
12,< 1000 nM,"CCC1N(c2ccc(Cl)cc2)C(=O)N(c2ccc(Cl)cc2)C1(O)c1cccc(Cl)c1 (stereo not drawn) [Compound 81, 4-(3-chlorophenyl)-1,3-bis(4-chlorophenyl)-5-ethyl-4-hydroxyimidazolidin-2-one]"
13,< 1000 nM,"CC[C@@H]1N(c2ccc(Cl)cc2)C(=O)N(c2ccc(Cl)cc2)C1(O)c1cccc(Cl)c1 (stereo partly drawn) [Compound 81-1, (5S)-4-(3-chlorophenyl)-1,3-bis(4-chlorophenyl)-5-ethyl-4-hydroxyimidazolidin-2-one]"
14,< 1000 nM,"CC[C@H]1N(c2ccc(Cl)cc2)C(=O)N(c2ccc(Cl)cc2)C1(O)c1cccc(Cl)c1 (stereo partly drawn) [Compound 81-2, (5R)-4-(3-chlorophenyl)-1,3-bis(4-chlorophenyl)-5-ethyl-4-hydroxyimidazolidin-2-one]"
15,< 1000 nM,"CCC1N(c2ccc(Cl)cc2)C(=O)N(c2ccc(Cl)cc2)C1(O)c1cccc(OC(F)(F)F)c1 (stereo not drawn) [Compound 82, 1,3-bis(4-chlorophenyl)-5-ethyl-4-hydroxy-4-(3-(trifluoromethoxy)phenyl)imidazolidin-2-one]"
16,< 1000 nM,"CCC1N(c2ccc(Br)cc2)C(=O)N(c2ccc(Br)cc2)C1(O)c1cccc(OC(F)(F)F)c1 (stereo not drawn) [Compound 83, 1,3-bis(4-bromophenyl)-5-ethyl-4-hydroxy-4-(3-(trifluoromethoxy)phenyl)imidazolidin-2-one]"
17,1000 to 10000 nM,"O=C1N(c2ccc(Cl)cc2)CC(O)(c2cc(Cl)cc(Cl)c2)N1c1ccc(Cl)cc1 (stereo not drawn) [Compound 85, 1,3-bis(4-chlorophenyl)-4-(3,5-dichlorophenyl)-4-hydroxyimidazolidin-2-one]"
18,10000 to 50000 nM,"O=C1N(c2ccc(Br)cc2)[C@@H](c2ccccc2)C(O)(c2ccccc2)N1c1ccc(Br)cc1 (stereo partly drawn) [Compound 86-1, (5S)-1,3-bis(4-bromophenyl)-4-hydroxy-4,5-diphenylimidazolidin-2-one]"
19,1000 to 10000 nM,"O=C1N(c2ccc(Br)cc2)[C@H](c2ccccc2)C(O)(c2ccccc2)N1c1ccc(Br)cc1 (stereo partly drawn) [Compound 86-2, (5R)-1,3-bis(4-bromophenyl)-4-hydroxy-4,5-diphenylimidazolidin-2-one]"
20,< 1000 nM,"CCCC1N(c2ccc(Cl)cc2)C(=O)N(c2ccc(Cl)cc2)C1(O)c1cccc(C(F)(F)F)c1 (stereo not drawn) [Compound 87, 1,3-bis(4-chlorophenyl)-4-hydroxy-5-propyl-4-(3-(trifluoromethyl)phenyl)imidazolidin-2-one]"
21,< 1000 nM,"CCC[C@H]1N(c2ccc(Cl)cc2)C(=O)N(c2ccc(Cl)cc2)C1(O)c1cccc(C(F)(F)F)c1 (stereo partly drawn) [Compound 87-2, (5R)-1,3-bis(4-chlorophenyl)-4-hydroxy-5-propyl-4-(3-(trifluoromethyl)phenyl)imidazolidin-2-one]"
22,< 1000 nM,"CCCC1N(c2ccc(Br)cc2)C(=O)N(c2ccc(Br)cc2)C1(O)c1cccc(CC)c1 (stereo not drawn) [Compound 88, 1,3-bis(4-bromophenyl)-4-(3-ethylphenyl)-4-hydroxy-5-propylimidazolidin-2-one]"
23,< 1000 nM,"CCC[C@@H]1N(c2ccc(Br)cc2)C(=O)N(c2ccc(Br)cc2)C1(O)c1cccc(CC)c1 (stereo partly drawn) [Compound 88-1, (5S)-1,3-bis(4-bromophenyl)-4-(3-ethylphenyl)-4-hydroxy-5-propylimidazolidin-2-one]"
24,< 1000 nM,"CCC[C@H]1N(c2ccc(Br)cc2)C(=O)N(c2ccc(Br)cc2)C1(O)c1cccc(CC)c1 (stereo partly drawn) [Compound 88-2, (5R)-1,3-bis(4-bromophenyl)-4-(3-ethylphenyl)-4-hydroxy-5-propylimidazolidin-2-one]"
25,< 1000 nM,"CCCC1N(c2ccc(Cl)cc2)C(=O)N(c2ccc(Cl)cc2)C1(O)c1cccc(CC)c1 (stereo not drawn) [Compound 89, 1,3-bis(4-chlorophenyl)-4-(3-ethylphenyl)-4-hydroxy-5-propylimidazolidin-2-one]"
26,< 1000 nM,"CCC[C@@H]1N(c2ccc(Cl)cc2)C(=O)N(c2ccc(Cl)cc2)C1(O)c1cccc(CC)c1 (stereo partly drawn) [Compound 89-1, (5S)-1,3-bis(4-chlorophenyl)-4-(3-ethylphenyl)-4-hydroxy-5-propylimidazolidin-2-one]"

row,Structure (SMILES),IC50
1,"C[C@H]1N(c2ccc(Cl)cc2)C(=O)N(c2ccc(Cl)cc2)C1(O)c1cccc(C(F)(F)F)c1 (stereo partly drawn) [Compound 77-2, (5R)-1,3-bis(4-chlorophenyl)-4-hydroxy-5-methyl-4-(3-(trifluoromethyl)phenyl)imidazolidin-2-one]",< 1000 nM
